Results reported in ChEMBL document CHEMBL1201862, “PubChem BioAssay data set” (2004).
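The compound was tested at five concentrations on cells cultured in 96-well plates, with a 48-hour exposure period. GI50: concentration for 50% inhibition of growth.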 Calls of active or inactive are those of the source. Rule as the data show it: active = GI50 up to about 1.1 µM and inactive = higher.

Assays:
Assay in all cases: inhibition of tumour cell growth, NCI panel, 48 h
IGROV-1 = tested on: IGROV-1
ACHN = tested on: ACHN
SK-OV-3 = tested on: SK-OV-3
KM-20L2 = tested on: KM-20L2
CAKI-1 = tested on: CAKI-1
NCI-H226 = tested on: NCI-H226
NCI-H522 = tested on: NCI-H522
UO-31 = tested on: UO-31
U-251 = tested on: U-251
A549 = tested on: A549
EKVX = tested on: EKVX
HCT-116 = tested on: HCT-116
HCC 2998 = tested on: HCC 2998
SF-268 = tested on: SF-268
SNB-75 = tested on: SNB-75
M19-MEL = tested on: M19-MEL
RPMI-8226 = tested on: RPMI-8226

Measured: GI50

CC(C)OCN1COCN/C1=N/C#N
inactive: IGROV-1 > 100 µM | ACHN > 100 µM | SK-OV-3 > 100 µM | KM-20L2 > 100 µM | CAKI-1 > 100 µM | NCI-H226 > 100 µM | NCI-H522 > 100 µM | UO-31 > 100 µM | U-251 42.2 µM | A549 > 100 µM | EKVX > 100 µM | HCT-116 > 100 µM | HCC 2998 > 100 µM | SF-268 > 100 µM | SNB-75 > 100 µM | M19-MEL > 100 µM

CCOC(=O)c1ccc(/C(C)=N/NC(N)=S)cc1
inactive: IGROV-1 > 100 µM | ACHN > 100 µM | SK-OV-3 > 100 µM | KM-20L2 > 100 µM | U-251 > 100 µM | A549 > 100 µM | EKVX 2.74 µM | HCT-116 > 100 µM | HCC 2998 > 100 µM | RPMI-8226 > 100 µM | SNB-75 > 100 µM | M19-MEL > 100 µM

COC(=O)CCC(=O)C(C#N)c1ccc(Cl)cc1Cl (stereo unspecified)
inactive: IGROV-1 > 100 µM | ACHN > 100 µM | SK-OV-3 > 100 µM | KM-20L2 > 100 µM | CAKI-1 > 100 µM | NCI-H226 > 100 µM | NCI-H522 > 100 µM | UO-31 > 100 µM | U-251 > 100 µM | A549 > 100 µM | EKVX > 100 µM | HCT-116 > 100 µM | SF-268 > 100 µM | RPMI-8226 > 100 µM | SNB-75 > 100 µM | M19-MEL > 100 µM

CCOC(=O)NC(=O)c1cn(CCCOC(=O)CCCCCCCCCCC(=O)OCCCn2cc(C(=O)NC(=O)OCC)c(=O)[nH]c2=O)c(=O)[nH]c1=O
inactive: IGROV-1 > 100 µM | ACHN > 100 µM | SK-OV-3 42.7 µM | KM-20L2 > 100 µM | NCI-H226 > 100 µM | UO-31 > 100 µM | U-251 > 100 µM | A549 > 100 µM | EKVX > 100 µM | HCT-116 > 100 µM | HCC 2998 > 100 µM | SF-268 > 100 µM | RPMI-8226 > 100 µM | M19-MEL > 100 µM

O=[N+]([O-])C1Cc2ccccc2OC1c1ccccc1 (stereo unspecified)
inactive: IGROV-1 64.4 µM | ACHN 66.7 µM | SK-OV-3 96.6 µM | KM-20L2 > 100 µM | CAKI-1 24.1 µM | NCI-H226 > 100 µM | NCI-H522 26.6 µM | UO-31 > 100 µM | U-251 40.6 µM | A549 > 100 µM | EKVX > 100 µM | HCT-116 66.4 µM | HCC 2998 > 100 µM | SF-268 36.1 µM | SNB-75 19.9 µM | M19-MEL > 100 µM

CNc1ccc([N+](=O)[O-])c2c(NCCCN(C)C)ccnc12
inactive: IGROV-1 > 100 µM | ACHN > 100 µM | SK-OV-3 > 100 µM | KM-20L2 > 100 µM | CAKI-1 > 100 µM | NCI-H226 > 100 µM | NCI-H522 > 100 µM | UO-31 > 100 µM | U-251 > 100 µM | A549 > 100 µM | EKVX > 100 µM | HCT-116 > 100 µM | HCC 2998 > 100 µM | SF-268 > 100 µM | RPMI-8226 > 100 µM | M19-MEL > 100 µM

COC(=O)C1=C(c2ccc3c(c2)OCO3)OC(c2cc(OC)c(OC)c(OC)c2)C1 (stereo unspecified)
inactive: IGROV-1 2.75 µM | ACHN 6.98 µM | SK-OV-3 2.28 µM | KM-20L2 1.57 µM | CAKI-1 2.12 µM | NCI-H226 3.81 µM | UO-31 8.26 µM | U-251 2.34 µM | A549 5.77 µM | EKVX 2.82 µM | HCT-116 2.88 µM | HCC 2998 5.77 µM | SF-268 31.6 µM | RPMI-8226 8.87 µM | SNB-75 2.72 µM | M19-MEL 4.86 µM

c1ccc(C2N3CCCCC3[C@@H]3c4[nH]c5ccccc5c4CCN23)nc1 (stereo partly specified)
inactive: IGROV-1 > 100 µM | ACHN > 100 µM | SK-OV-3 > 100 µM | KM-20L2 > 100 µM | CAKI-1 > 100 µM | UO-31 > 100 µM | U-251 > 100 µM | A549 > 100 µM | EKVX > 100 µM | HCT-116 > 100 µM | SF-268 47.9 µM | RPMI-8226 > 100 µM | SNB-75 68.7 µM | M19-MEL > 100 µM

O=[N+]([O-])c1cccc(C(O)/C(=N/Nc2ccccc2)C2Nc3ccc([N+](=O)[O-])cc3N=C2O)c1 (stereo unspecified)
inactive: IGROV-1 38.7 µM | ACHN 24.5 µM | SK-OV-3 > 100 µM | KM-20L2 23.1 µM | NCI-H226 > 100 µM | NCI-H522 19.7 µM | UO-31 27.5 µM | U-251 88.1 µM | A549 41.2 µM | EKVX > 100 µM | HCT-116 > 100 µM | HCC 2998 33.4 µM | SF-268 93.5 µM | RPMI-8226 43 µM | SNB-75 74 µM | M19-MEL 45.4 µM
